Data: ChEMBL document CHEMBL3885881, “DrugMatrix”

Species: Rattus norvegicus
Experiment: DrugMatrix - Regimen: Daily Repeat
Assay type: toxicity, organism-based, Sprague-Dawley
Design: regimen Daily Repeat, gender Male, age 6-8 weeks
Settings: in vivo, sc, route subcutaneous, […]; for ABSOLUTE BASOPHIL / ABSOLUTE EOSINOPHIL / ABSOLUTE LYMPHOCYTE / ABSOLUTE MONOCYTE / ABSOLUTE SEGMENTED NEUTROPHIL / BASOPHIL / EOSINOPHIL / ERYTHROCYTE COUNT / HEMATOCRIT / HEMOGLOBIN / LEUKOCYTE COUNT / LYMPHOCYTE / MEAN CORPUSCULAR HEMOGLOBIN / MEAN CORPUSCULAR HEMOGLOBIN CONCENTRATION / MEAN CORPUSCULAR VOLUME / MONOCYTE / NEUTROPHIL / NUCLEATED RED BLOOD CELLS / PLATELET COUNT: tissue Blood; for ALANINE AMINOTRANSFERASE / ALBUMIN / ALKALINE PHOSPHATASE / ASPARTATE AMINOTRANSFERASE / BLOOD UREA NITROGEN / CARBON DIOXIDE / CHLORIDE / CHOLESTEROL / CREATINE PHOSPHOKINASE / CREATININE / GLUCOSE / LACTATE DEHYDROGENASE / LIPASE / PHOSPHORUS / POTASSIUM / SODIUM / TOTAL BILIRUBIN / TOTAL PROTEIN / URIC ACID: tissue Plasma
[1] = 2 mg/kg, 120 h, dose level Low, time 5 day
[2] = 17 mg/kg, 72 h, dose level High, time 3 day
[3] = 17 mg/kg, 120 h, dose level High, time 5 day

With `CCC(=O)O[C@]1(C(=O)CCl)[C@@H](C)C[C@H]2[C@@H]3CCC4=CC(=O)C=C[C@]4(C)[C@@]3(F)[C@@H](O)C[C@@]21C` [CLOBETASOL PROPIONATE] the “ABSOLUTE BASOPHIL” value [1] was 0 CELLS/uL, the “ABSOLUTE EOSINOPHIL” value [1] was 128.67 CELLS/uL and the “ABSOLUTE LYMPHOCYTE” value [1] was 583 CELLS/uL. The “ABSOLUTE MONOCYTE” value [1] was 17.33 CELLS/uL, the “ABSOLUTE SEGMENTED NEUTROPHIL” value [1] was 7437.67 CELLS/uL and the BASOPHIL [1] was 0%. The EOSINOPHIL [1] was 1.33%, the “ERYTHROCYTE COUNT” value [1] was 6.32 x10E6/uL and the HEMATOCRIT [1] was 40.2%. The HEMOGLOBIN [1] was 14.5 G/DL, the “LEUKOCYTE COUNT” value [1] was 8.17 x10E3/uL and the LYMPHOCYTE [1] was 6.67%. The “MEAN CORPUSCULAR HEMOGLOBIN” value [1] was 23.07 pg, the “MEAN CORPUSCULAR HEMOGLOBIN CONCENTRATION” value [1] was 36.1 G/DL and the “MEAN CORPUSCULAR VOLUME” value [1] was 63.83 fL. The MONOCYTE [1] was 0.33%, the NEUTROPHIL [1] was 91.67% and the “NUCLEATED RED BLOOD CELLS” value [1] was 0 /100WBC. For the same compound, the “PLATELET COUNT” value [1] was 805.67 x10E3/uL, the “ALANINE AMINOTRANSFERASE” value [1] was 191.67 u/L and the ALBUMIN [1] was 4.53 G/DL. The “ALKALINE PHOSPHATASE” value [1] was 392 u/L, the “ASPARTATE AMINOTRANSFERASE” value [1] was 342 u/L and the “BLOOD UREA NITROGEN” value [1] was 24.33 mg/dL. For the same compound, the “CARBON DIOXIDE” value [1] was 19.67 mmol/L, the CHLORIDE [1] was 102.67 MEQ/L and the CHOLESTEROL [1] was 160 mg/dL. The “CREATINE PHOSPHOKINASE” value [1] was 1604 u/L, the CREATININE [1] was 0.28 mg/dL and the GLUCOSE [1] was 604.67 mg/dL. The “LACTATE DEHYDROGENASE” value [1] was 516.33 u/L, the LIPASE [1] was 10.33 u/L and the PHOSPHORUS [1] was 11.93 mg/dL. The POTASSIUM [1] was 4.7 MEQ/L, the SODIUM [1] was 143.1 MEQ/L and the “TOTAL BILIRUBIN” value [1] was 0.7 mg/dL. For the same compound, the “TOTAL PROTEIN” value [1] was 6.67 G/DL, the “URIC ACID” value [1] was 0.9 mg/dL and the “ABSOLUTE BASOPHIL” value [2] was 0 CELLS/uL. For the same compound, the “ABSOLUTE EOSINOPHIL” value [2] was 24 CELLS/uL, the “ABSOLUTE LYMPHOCYTE” value [2] was 383 CELLS/uL and the “ABSOLUTE MONOCYTE” value [2] was 0 CELLS/uL. The “ABSOLUTE SEGMENTED NEUTROPHIL” value [2] was 2026.33 CELLS/uL, the BASOPHIL [2] was 0% and the EOSINOPHIL [2] was 1%. The “ERYTHROCYTE COUNT” value [2] was 5.77 x10E6/uL, the HEMATOCRIT [2] was 36.77% and the HEMOGLOBIN [2] was 13.07 G/DL. For the same compound, the “LEUKOCYTE COUNT” value [2] was 2.43 x10E3/uL, the LYMPHOCYTE [2] was 15.67% and the “MEAN CORPUSCULAR HEMOGLOBIN” value [2] was 22.7 pg. The “MEAN CORPUSCULAR HEMOGLOBIN CONCENTRATION” value [2] was 35.57 G/DL, the “MEAN CORPUSCULAR VOLUME” value [2] was 63.9 fL and the MONOCYTE [2] was 0%. For the same compound, the NEUTROPHIL [2] was 83.33%, the “NUCLEATED RED BLOOD CELLS” value [2] was 0 /100WBC and the “PLATELET COUNT” value [2] was 1160 x10E3/uL. The “ALANINE AMINOTRANSFERASE” value [2] was 95 u/L, the ALBUMIN [2] was 5.23 G/DL and the “ALKALINE PHOSPHATASE” value [2] was 460.67 u/L. The “ASPARTATE AMINOTRANSFERASE” value [2] was 128.33 u/L, the “BLOOD UREA NITROGEN” value [2] was 25.67 mg/dL and the “CARBON DIOXIDE” value [2] was 23.33 mmol/L. The CHLORIDE [2] was 101.5 MEQ/L, the CHOLESTEROL [2] was 162.67 mg/dL and the “CREATINE PHOSPHOKINASE” value [2] was 209.33 u/L. The CREATININE [2] was 0.29 mg/dL, the GLUCOSE [2] was 571.33 mg/dL and the “LACTATE DEHYDROGENASE” value [2] was 160.33 u/L. For the same compound, the LIPASE [2] was 10.5 u/L, the PHOSPHORUS [2] was 10 mg/dL and the POTASSIUM [2] was 4.82 MEQ/L. The SODIUM [2] was 141.8 MEQ/L, the “TOTAL BILIRUBIN” value [2] was 0.2 mg/dL and the “TOTAL PROTEIN” value [2] was 7.47 G/DL. The “URIC ACID” value [2] was 0.4 mg/dL, the “ABSOLUTE BASOPHIL” value [3] was 0 CELLS/uL and the “ABSOLUTE EOSINOPHIL” value [3] was 214.67 CELLS/uL. For the same compound, the “ABSOLUTE LYMPHOCYTE” value [3] was 340.67 CELLS/uL, the “ABSOLUTE MONOCYTE” value [3] was 76.33 CELLS/uL and the “ABSOLUTE SEGMENTED NEUTROPHIL” value [3] was 17401.67 CELLS/uL. The BASOPHIL [3] was 0%, the EOSINOPHIL [3] was 1% and the “ERYTHROCYTE COUNT” value [3] was 6.25 x10E6/uL. The HEMATOCRIT [3] was 38.87%, the HEMOGLOBIN [3] was 14.47 G/DL and the “LEUKOCYTE COUNT” value [3] was 18.03 x10E3/uL. For the same compound, the LYMPHOCYTE [3] was 2%, the “MEAN CORPUSCULAR HEMOGLOBIN” value [3] was 23.17 pg and the “MEAN CORPUSCULAR HEMOGLOBIN CONCENTRATION” value [3] was 37.23 G/DL. The “MEAN CORPUSCULAR VOLUME” value [3] was 62.2 fL, the MONOCYTE [3] was 0.33% and the NEUTROPHIL [3] was 96.67%. The “NUCLEATED RED BLOOD CELLS” value [3] was 0 /100WBC, the “PLATELET COUNT” value [3] was 927.33 x10E3/uL and the “ALANINE AMINOTRANSFERASE” value [3] was 204.67 u/L. The ALBUMIN [3] was 3.67 G/DL, the “ALKALINE PHOSPHATASE” value [3] was 242.33 u/L and the “ASPARTATE AMINOTRANSFERASE” value [3] was 271.33 u/L. The “BLOOD UREA NITROGEN” value [3] was 24.67 mg/dL, the “CARBON DIOXIDE” value [3] was 22 mmol/L and the CHLORIDE [3] was 99.33 MEQ/L. The CHOLESTEROL [3] was 122.33 mg/dL, the “CREATINE PHOSPHOKINASE” value [3] was 1143.67 u/L and the CREATININE [3] was 0.2 mg/dL. For the same compound, the GLUCOSE [3] was 515.33 mg/dL, the “LACTATE DEHYDROGENASE” value [3] was 439.33 u/L and the LIPASE [3] was 9.67 u/L. The PHOSPHORUS [3] was 12.77 mg/dL, the POTASSIUM [3] was 4.7 MEQ/L and the SODIUM [3] was 140.6 MEQ/L. For the same compound, the “TOTAL BILIRUBIN” value [3] was 0.73 mg/dL, the “TOTAL PROTEIN” value [3] was 5.7 G/DL and the “URIC ACID” value [3] was 1.07 mg/dL.
